What all share (assay type): biochemical
The subject of test [1] is Normal human pooled plasma. Put plainly: Prothrombin time (PT) clotting assay. The conditions noted are these: concentration at which prothrombin time is prolonged by 2x normal, reported as less than or greater than 50 uM. As to the method: The prothrombin time (PT) assay is a clotting assay that is used to determine deficiencies of clotting factor activity in the extrinsic pathway. The assay measures time to clotting after the addition of thromboplastin (human tissue factor). Normal human pooled plasma is incubated with 100 uM compound or saline in a coagulation machine. Thromboplastin is added and time to clotting is measured. Compounds with greater than 3×normal PT of 11.0 seconds are further analyzed by concentration response to determine at what concentration the prothrombin time is prolonged by 2×normal.

Test [2] addresses T1, Human thrombin (Homo sapiens, UniProt P00734).
T1 construct: converts prothrombin (II) to thrombin (IIa); purchased Calbiochem, La Jolla, Calif
Put plainly: Thrombin assay (chromogenic substrate). The conditions noted are these: reported only as less than or greater than 30 uM; read-out: Thrombin (II) IC50. Put shortly:
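Percent inhibition derived by comparing OD405 nm of compound-treated and control samples. Thrombin cleavage of a p-nitroanilide chromogenic substrate provides the signal.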

The target of test [3] is T2, Human factor Xa (Homo sapiens, UniProt P00742).
T2 construct: purchased Enzyme Research Laboratories, South Bend Ind
T2 sequence (P00742 235-488 limits assumed): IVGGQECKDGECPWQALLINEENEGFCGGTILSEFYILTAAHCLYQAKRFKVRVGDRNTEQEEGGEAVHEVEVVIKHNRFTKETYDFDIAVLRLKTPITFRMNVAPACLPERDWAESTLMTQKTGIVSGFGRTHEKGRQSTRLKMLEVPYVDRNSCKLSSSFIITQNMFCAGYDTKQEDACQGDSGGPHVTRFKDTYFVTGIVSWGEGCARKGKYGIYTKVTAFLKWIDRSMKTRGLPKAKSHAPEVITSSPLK
T2 sequence (P00742 41-179 limits assumed): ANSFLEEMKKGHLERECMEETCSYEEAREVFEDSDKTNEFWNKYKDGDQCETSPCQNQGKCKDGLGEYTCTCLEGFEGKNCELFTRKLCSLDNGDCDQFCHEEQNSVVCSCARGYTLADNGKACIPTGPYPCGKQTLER
The test is described as follows: Xa assay (chromogenic substrate S-2765). As to conditions: reported only as less than or greater than 30 uM; read-out: Factor Xa (II) IC50. The method, boiled down:
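Chromogenic readout: S-2765 hydrolysis (0.15 mM) by 0.3 nM human FXa was monitored at 405 nm after 60 min at room temperature, with a time-zero background read. Buffer: 50 mM Tris-HCl, pH 8.0, 100 mM NaCl, 0.1% BSA. Inhibition is relative to buffer-only controls.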

For test [4], the target named is T3, recombinant soluble tissue factor and recombinant human factor VIIa (TF-VIIa) (Homo sapiens, UniProt P08709).
T3 construct: conversion of coagulation factor VII to VIIa by factor Xa; purchased American Diagnostica, Greenwich CT; host or cells: soluble TF made in house in E. coli
T3 sequence (P08709 213-466 limits assumed): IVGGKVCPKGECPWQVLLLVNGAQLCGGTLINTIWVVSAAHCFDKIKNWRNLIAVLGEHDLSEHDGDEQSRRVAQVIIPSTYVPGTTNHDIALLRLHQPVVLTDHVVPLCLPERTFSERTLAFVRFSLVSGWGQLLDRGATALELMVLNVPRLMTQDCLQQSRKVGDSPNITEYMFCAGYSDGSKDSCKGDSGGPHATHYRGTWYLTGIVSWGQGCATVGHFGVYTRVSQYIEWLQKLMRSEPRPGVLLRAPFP
T3 sequence (P08709 61-212 limits assumed): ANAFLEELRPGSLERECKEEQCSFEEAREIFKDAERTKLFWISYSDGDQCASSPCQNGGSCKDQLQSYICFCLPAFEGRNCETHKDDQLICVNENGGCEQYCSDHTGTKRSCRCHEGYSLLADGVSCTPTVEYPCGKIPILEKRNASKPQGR
T3 sequence (P13726 33-251 partner limits assumed): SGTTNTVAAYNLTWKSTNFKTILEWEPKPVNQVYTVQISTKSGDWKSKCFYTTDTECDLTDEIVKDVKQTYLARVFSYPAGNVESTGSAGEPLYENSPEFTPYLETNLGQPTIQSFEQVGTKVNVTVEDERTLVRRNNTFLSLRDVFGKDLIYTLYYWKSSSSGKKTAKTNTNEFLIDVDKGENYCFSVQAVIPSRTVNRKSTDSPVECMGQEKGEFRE
The test is described as follows: TF-VIIa assay (chromogenic substrate hydrolysis). The conditions noted are these: reported only as less than or greater than 0.1 uM. Put shortly: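 Chromogenic read at OD405, compared with control for percent inhibition. Substrate N-methylsulfonyl-D-phe-gly-arg-p-nitroaniline at 0.4 mM is cleaved by recombinant human VIIa (2 nM) complexed with soluble TF (100 nM). Buffer: pH 8.0 Tris-HCl 50 mM, CaCl2 5 mM, NaCl 100 mM, BSA 0.1%.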

Take `CC(C)Nc1ncc(-c2cc(N)cc(NC(=O)Cc3ccccc3)c2)n(CC(=O)NCc2ccc(C(=N)N)cc2)c1=O` [Example 99]: the “PT (Prothrombin time) 2xPT” value in test [1] was less than 50.0 µM. Besides, the IC50 in test [2] was greater than 30 µM; in test [3], greater than 30 µM; in test [4] it was less than 0.1 µM.
As for `CC(C)Nc1ncc(-c2cc(N)cc(OC3CCCCC3)c2)n(CC(=O)NCc2ccc(C(=N)N)cc2)c1=O.O=C(O)C(F)(F)F.O=C(O)C(F)(F)F` [Example 225], the “PT (Prothrombin time) 2xPT” value in test [1] is greater than 50.0 µM. The IC50 in test [2] was greater than 30 µM; in test [3], greater than 30 µM; in test [4] it was less than 0.1 µM.
Take `CC(C)Nc1ncc(-c2cc(N)cc(C(F)(F)F)c2)n(CC(=O)NCc2c(F)c(O)c(C(=N)N)c(F)c2F)c1=O` [Example 65]: the “PT (Prothrombin time) 2xPT” value in test [1] was greater than 50.0 µM. For the same molecule, the values for the half-maximal inhibitory concentration (IC50) in test [2], in test [3] and in test [4] were greater than 30 µM, greater than 30 µM and greater than 0.1 µM, respectively.
For the molecule `CC(C)Nc1ncc(-c2cc(N)cc(N)c2)n(CC(=O)NCc2ccc(C(=N)N)c(O)c2)c1=O` [Example 79], the “PT (Prothrombin time) 2xPT” value in test [1] was less than 50.0 µM. Also, the IC50 is greater than 30 µM in test [2], greater than 30 µM in test [3] and greater than 0.1 µM in test [4].
For `CC(C)Nc1ncc(-c2cc(N)cc(C(=O)NCc3ccccc3)c2)n(CC(=O)NCc2ccc(C(=N)N)cc2)c1=O.O=C(O)C(F)(F)F.O=C(O)C(F)(F)F` [Example 24], the “PT (Prothrombin time) 2xPT” value in test [1] was less than 50.0 µM. The half-inhibitory concentration (IC50) in test [2] was greater than 30 µM; in test [3], greater than 30 µM; in test [4], less than 0.1 µM.
Consider `CC(C)Nc1ncc(-c2cc(N)cc(NC(=O)CCC3CCCC3)c2)n(CC(=O)NCc2ccc(C(=N)N)cc2)c1=O` [Example 107], for which the “PT (Prothrombin time) 2xPT” value in test [1] is less than 50.0 µM. Also, the IC50 in test [2] is greater than 30 µM; in test [3], greater than 30 µM; in test [4], less than 0.1 µM.
Take `CC(C)Nc1ncc(-c2cc(N)cc(S(=O)(=O)O)c2)n(CC(=O)NCc2ccc(C(=N)N)cc2)c1=O` [Example 66, 3-Amino-5-[1-[2-({4-[amino(imino)methyl]benzyl}amino)-2-oxoethyl]-5-(isopropylamino)-6-oxo-1,6-dihydropyrazin-2-yl]benzenesulfonic Acid]: the “PT (Prothrombin time) 2xPT” value in test [1] is less than 50.0 µM. Also, the 50% inhibitory concentration (IC50) in test [2] was greater than 30 µM; in test [3], greater than 30 µM; in test [4], less than 0.1 µM.
Regarding `CC[C@H](C)NC(=O)c1cc(N)cc(-c2cnc(N[C@H](C)C(C)C)c(=O)n2CC(=O)NCc2ccc(C(=N)N)cc2)c1.O=C(O)C(F)(F)F.O=C(O)C(F)(F)F` [Example 202], the “PT (Prothrombin time) 2xPT” value in test [1] was less than 50.0 µM. Also, the IC50 was less than 30 µM in test [2], greater than 30 µM in test [3] and less than 0.1 µM in test [4].
Regarding `CC(C)Nc1ncc(-c2cc(N)cc(NC(=O)[C@H]3C[C@@H]3c3ccccc3)c2)n(CC(=O)NCc2ccc(C(=N)N)cc2)c1=O.O=C(O)C(F)(F)F.O=C(O)C(F)(F)F` [Example 140], the “PT (Prothrombin time) 2xPT” value in test [1] was less than 50.0 µM. For the same molecule, the half-inhibitory concentration (IC50) in test [2] was less than 30 µM; in test [3], greater than 30 µM; in test [4], less than 0.1 µM.
On to `CC(C)Nc1ncc(-c2cc(N)cc(NS(=O)(=O)c3ccccc3C(F)(F)F)c2)n(CC(=O)NCc2ccc(C(=N)N)cc2)c1=O` [Example 89], for which, in test [1], the “PT (Prothrombin time) 2xPT” value was less than 50.0 µM. Besides, the IC50 was greater than 30 µM in test [2], greater than 30 µM in test [3] and less than 0.1 µM in test [4].
Take `COCCOc1cc(N)cc(-c2cnc(NC(C)C)c(=O)n2CC(=O)NCc2ccc(C(=N)N)cc2)c1.O=C(O)C(F)(F)F.O=C(O)C(F)(F)F` [Example 219]: the “PT (Prothrombin time) 2xPT” value in test [1] was less than 50.0 µM. The IC50 in test [2] was greater than 30 µM; in test [3], greater than 30 µM; in test [4], less than 0.1 µM.
Consider `COc1cc(N)cc(-c2cnc(NC(C)C)c(=O)n2CC(=O)NCc2cc(O)c(C(=N)N)c(F)c2)c1.Cl.Cl` [Example 123], for which, in test [1], the “PT (Prothrombin time) 2xPT” value was less than 50.0 µM. For the same molecule, the figures for the IC50 in test [2], in test [3] and in test [4] were greater than 30 µM, greater than 30 µM and less than 0.1 µM, respectively.

Broadly, the IC50 is the concentration that inhibits the measured activity by half.

Source of the values: US20040106626A1, “6-Membered unsaturated heterocyclic compounds useful for selective inhibition of the coagulation cascade” (Pharmacia Corporation, priority 2001, published 2004).
